Experimental data from patent publication US9487502B2, “Chemical compounds” (Syngenta Limited, priority 2013, dated 2016).

Experiments:
Format in all cases: in vivo
Abutilon theophrasti [1] = test: Pre-emergence herbicidal activity, ABUTH; design: key: 5=total damage to plant; 0=no damage to plant; conditions: 1000 g/Ha, sprayed pre-emergence, evaluated after 13 days, scale 0-5
Method: (§1) Seeds of a variety of test species were sown in standard soil in pots. After cultivation for one day (pre-emergence) under controlled conditions in a glasshouse (at 24/16° C., day/night; 14 hours light; 65% humidity), the plants were sprayed with an aqueous spray solution derived from the formulation of the technical active ingredient in acetone/water (50:50) solution containing 0.5% Tween 20 (polyoxyethelyene sorbitan monolaurate, CAS RN 9005-64-5). The test plants were then grown in a glasshouse under controlled conditions (at 24/16° C., day/night; 14 hours light; 65% humidity) and watered twice daily. After 13 days, the test was evaluated (5=total damage to plant; 0=no damage to plant).

Echinochloa crus-galli [2] = test: Pre-emergence herbicidal activity, ECHCG; design: key: 5=total damage to plant; 0=no damage to plant; conditions: 1000 g/Ha, sprayed pre-emergence, evaluated after 13 days, scale 0-5
Method: as §1

Alopecurus myosuroides [3] = test: Post-emergence herbicidal activity, ALOMY; design: key: 5=total damage to plant; 0=no damage to plant; conditions: 1000 g/Ha, sprayed post-emergence (8 days cultivation), evaluated after 13 days, scale 0-5
Method: (§2) Seeds of a variety of test species were sown in standard soil in pots. After 8 days cultivation (post-emergence) under controlled conditions in a glasshouse (at 24/16° C., day/night; 14 hours light; 65% humidity), the plants were sprayed with an aqueous spray solution derived from the formulation of the technical active ingredient in acetone/water (50:50) solution containing 0.5% Tween 20 (polyoxyethelyene sorbitan monolaurate, CAS RN 9005-64-5). The test plants were then grown in a glasshouse under controlled conditions (at 24/16° C., day/night; 14 hours light; 65% humidity) and watered twice daily. After 13 days, the test was evaluated (5=total damage to plant; 0=no damage to plant).

Amaranthus retroflexus [4] = test: Post-emergence herbicidal activity, AMARE; design: key: 5=total damage to plant; 0=no damage to plant; conditions: 1000 g/Ha, sprayed post-emergence (8 days cultivation), evaluated after 13 days, scale 0-5
Method: as §2

Amaranthus retroflexus [5] = test: Pre-emergence herbicidal activity, AMARE; design: key: 5=total damage to plant; 0=no damage to plant; conditions: 1000 g/Ha, sprayed pre-emergence, evaluated after 13 days, scale 0-5
Method: as §1

Echinochloa crus-galli [6] = test: Post-emergence herbicidal activity, ECHCG; design: key: 5=total damage to plant; 0=no damage to plant; conditions: 1000 g/Ha, sprayed post-emergence (8 days cultivation), evaluated after 13 days, scale 0-5
Method: as §2

Zea mays [7] = test: Pre-emergence herbicidal activity, ZEAMX; conditions: 1000 g/Ha, sprayed pre-emergence, evaluated after 13 days, scale 0-5
Method: as §1

Alopecurus myosuroides [8] = test: Pre-emergence herbicidal activity, ALOMY; design: key: 5=total damage to plant; 0=no damage to plant; conditions: 1000 g/Ha, sprayed pre-emergence, evaluated after 13 days, scale 0-5
Method: as §1

Setaria faberi [9] = test: Post-emergence herbicidal activity, SETFA; design: key: 5=total damage to plant; 0=no damage to plant; conditions: 1000 g/Ha, sprayed post-emergence (8 days cultivation), evaluated after 13 days, scale 0-5
Method: as §2

Setaria faberi [10] = test: Pre-emergence herbicidal activity, SETFA; design: key: 5=total damage to plant; 0=no damage to plant; conditions: 1000 g/Ha, sprayed pre-emergence, evaluated after 13 days, scale 0-5
Method: as §1

Zea mays [11] = test: Post-emergence herbicidal activity, ZEAMX; design: key: 5=total damage to plant; 0=no damage to plant; conditions: 1000 g/Ha, sprayed post-emergence (8 days cultivation), evaluated after 13 days, scale 0-5
Method: as §2

Abutilon theophrasti [12] = test: Post-emergence herbicidal activity, ABUTH; design: key: 5=total damage to plant; 0=no damage to plant; conditions: 1000 g/Ha, sprayed post-emergence (8 days cultivation), evaluated after 13 days, scale 0-5
Method: as §2

CCC1C(O)N(c2cc(C(C)(C)C)ncn2)C(=O)N1C (stereo not drawn) [Example A16]
4: ECHCG damage score, application pre-emergence (Echinochloa crus-galli [2]) | ZEAMX damage score, application post-emergence (Zea mays [11])
2: ZEAMX damage score, application pre-emergence (Zea mays [7]) | ALOMY damage score, application pre-emergence (Alopecurus myosuroides [8])
5: ABUTH damage score, application pre-emergence (Abutilon theophrasti [1]) | AMARE damage score, application post-emergence (Amaranthus retroflexus [4]) | AMARE damage score, application pre-emergence (Amaranthus retroflexus [5]) | ECHCG damage score, application post-emergence (Echinochloa crus-galli [6]) | SETFA damage score, application post-emergence (Setaria faberi [9]) | SETFA damage score, application pre-emergence (Setaria faberi [10]) | ABUTH damage score, application post-emergence (Abutilon theophrasti [12])
3: ALOMY damage score, application post-emergence (Alopecurus myosuroides [3])

CCCC1C(O)N(c2cc(C(C)(C)C)ncn2)C(=O)N1C (stereo not drawn) [Example A17]
3: ALOMY damage score, application post-emergence (Alopecurus myosuroides [3]) | ZEAMX damage score, application pre-emergence (Zea mays [7])
5: ECHCG damage score, application pre-emergence (Echinochloa crus-galli [2]) | AMARE damage score, application post-emergence (Amaranthus retroflexus [4]) | AMARE damage score, application pre-emergence (Amaranthus retroflexus [5]) | ECHCG damage score, application post-emergence (Echinochloa crus-galli [6]) | SETFA damage score, application post-emergence (Setaria faberi [9]) | SETFA damage score, application pre-emergence (Setaria faberi [10]) | ABUTH damage score, application post-emergence (Abutilon theophrasti [12])
4: ABUTH damage score, application pre-emergence (Abutilon theophrasti [1]) | ALOMY damage score, application pre-emergence (Alopecurus myosuroides [8]) | ZEAMX damage score, application post-emergence (Zea mays [11])

CCOC1C(O)N(c2cc(C(C)(C)C#N)ncn2)C(=O)N1C (stereo not drawn) [Example A18]
3: ECHCG damage score, application pre-emergence (Echinochloa crus-galli [2])
4: ALOMY damage score, application post-emergence (Alopecurus myosuroides [3]) | SETFA damage score, application pre-emergence (Setaria faberi [10])
1: ALOMY damage score, application pre-emergence (Alopecurus myosuroides [8])
5: ABUTH damage score, application pre-emergence (Abutilon theophrasti [1]) | AMARE damage score, application post-emergence (Amaranthus retroflexus [4]) | AMARE damage score, application pre-emergence (Amaranthus retroflexus [5]) | ECHCG damage score, application post-emergence (Echinochloa crus-galli [6]) | SETFA damage score, application post-emergence (Setaria faberi [9]) | ZEAMX damage score, application post-emergence (Zea mays [11]) | ABUTH damage score, application post-emergence (Abutilon theophrasti [12])
2: ZEAMX damage score, application pre-emergence (Zea mays [7])

CCC1C(O)N(c2cc(C(C)(C)C)ncn2)C(=O)N1OC (stereo not drawn) [Example A19]
2: SETFA damage score, application post-emergence (Setaria faberi [9])
4: ALOMY damage score, application pre-emergence (Alopecurus myosuroides [8])
5: ECHCG damage score, application pre-emergence (Echinochloa crus-galli [2]) | AMARE damage score, application post-emergence (Amaranthus retroflexus [4]) | AMARE damage score, application pre-emergence (Amaranthus retroflexus [5]) | SETFA damage score, application pre-emergence (Setaria faberi [10]) | ZEAMX damage score, application post-emergence (Zea mays [11]) | ABUTH damage score, application post-emergence (Abutilon theophrasti [12])
3: ABUTH damage score, application pre-emergence (Abutilon theophrasti [1]) | ALOMY damage score, application post-emergence (Alopecurus myosuroides [3]) | ECHCG damage score, application post-emergence (Echinochloa crus-galli [6]) | ZEAMX damage score, application pre-emergence (Zea mays [7])

CC1C(O)N(c2cc(C(C)(C)F)ncn2)C(=O)N1C (stereo not drawn) [Example A20]
3: ALOMY damage score, application pre-emergence (Alopecurus myosuroides [8])
4: ECHCG damage score, application pre-emergence (Echinochloa crus-galli [2]) | ALOMY damage score, application post-emergence (Alopecurus myosuroides [3]) | ZEAMX damage score, application pre-emergence (Zea mays [7]) | ZEAMX damage score, application post-emergence (Zea mays [11])
5: ABUTH damage score, application pre-emergence (Abutilon theophrasti [1]) | AMARE damage score, application post-emergence (Amaranthus retroflexus [4]) | AMARE damage score, application pre-emergence (Amaranthus retroflexus [5]) | ECHCG damage score, application post-emergence (Echinochloa crus-galli [6]) | SETFA damage score, application post-emergence (Setaria faberi [9]) | SETFA damage score, application pre-emergence (Setaria faberi [10]) | ABUTH damage score, application post-emergence (Abutilon theophrasti [12])

CON1C(=O)N(c2cc(C(C)(C)F)ncn2)C(O)C1C (stereo not drawn) [Example A21]
3: ZEAMX damage score, application pre-emergence (Zea mays [7]) | ALOMY damage score, application pre-emergence (Alopecurus myosuroides [8])
4: ECHCG damage score, application pre-emergence (Echinochloa crus-galli [2]) | ZEAMX damage score, application post-emergence (Zea mays [11])
5: ABUTH damage score, application pre-emergence (Abutilon theophrasti [1]) | ALOMY damage score, application post-emergence (Alopecurus myosuroides [3]) | AMARE damage score, application post-emergence (Amaranthus retroflexus [4]) | AMARE damage score, application pre-emergence (Amaranthus retroflexus [5]) | ECHCG damage score, application post-emergence (Echinochloa crus-galli [6]) | SETFA damage score, application post-emergence (Setaria faberi [9]) | SETFA damage score, application pre-emergence (Setaria faberi [10]) | ABUTH damage score, application post-emergence (Abutilon theophrasti [12])

CN1CC(O)N(c2cc(C(C)(C)F)ncn2)C1=O (stereo not drawn) [Example A22]
4: ZEAMX damage score, application pre-emergence (Zea mays [7]) | ALOMY damage score, application pre-emergence (Alopecurus myosuroides [8])
5: ABUTH damage score, application pre-emergence (Abutilon theophrasti [1]) | ECHCG damage score, application pre-emergence (Echinochloa crus-galli [2]) | ALOMY damage score, application post-emergence (Alopecurus myosuroides [3]) | AMARE damage score, application post-emergence (Amaranthus retroflexus [4]) | AMARE damage score, application pre-emergence (Amaranthus retroflexus [5]) | ECHCG damage score, application post-emergence (Echinochloa crus-galli [6]) | SETFA damage score, application post-emergence (Setaria faberi [9]) | SETFA damage score, application pre-emergence (Setaria faberi [10]) | ZEAMX damage score, application post-emergence (Zea mays [11]) | ABUTH damage score, application post-emergence (Abutilon theophrasti [12])

CON1CC(O)N(c2cc(C(C)(C)C)ncn2)C1=O (stereo not drawn) [Example A23]
5: ABUTH damage score, application pre-emergence (Abutilon theophrasti [1]) | AMARE damage score, application pre-emergence (Amaranthus retroflexus [5]) | SETFA damage score, application post-emergence (Setaria faberi [9]) | ABUTH damage score, application post-emergence (Abutilon theophrasti [12])
4: ECHCG damage score, application pre-emergence (Echinochloa crus-galli [2]) | AMARE damage score, application post-emergence (Amaranthus retroflexus [4]) | ECHCG damage score, application post-emergence (Echinochloa crus-galli [6]) | ZEAMX damage score, application post-emergence (Zea mays [11])
2: SETFA damage score, application pre-emergence (Setaria faberi [10])
1: ALOMY damage score, application post-emergence (Alopecurus myosuroides [3]) | ZEAMX damage score, application pre-emergence (Zea mays [7]) | ALOMY damage score, application pre-emergence (Alopecurus myosuroides [8])

CC1C(O)N(c2cc(C(C)(C)C#N)ncn2)C(=O)N1C (stereo not drawn) [Example A24]
4: ALOMY damage score, application post-emergence (Alopecurus myosuroides [3]) | ALOMY damage score, application pre-emergence (Alopecurus myosuroides [8])
2: ZEAMX damage score, application pre-emergence (Zea mays [7])
5: ABUTH damage score, application pre-emergence (Abutilon theophrasti [1]) | ECHCG damage score, application pre-emergence (Echinochloa crus-galli [2]) | AMARE damage score, application post-emergence (Amaranthus retroflexus [4]) | AMARE damage score, application pre-emergence (Amaranthus retroflexus [5]) | ECHCG damage score, application post-emergence (Echinochloa crus-galli [6]) | SETFA damage score, application post-emergence (Setaria faberi [9]) | SETFA damage score, application pre-emergence (Setaria faberi [10]) | ZEAMX damage score, application post-emergence (Zea mays [11]) | ABUTH damage score, application post-emergence (Abutilon theophrasti [12])

CON1C(=O)N(c2cc(C(C)(C)C#N)ncn2)C(O)C1C (stereo not drawn) [Example A25]
4: ZEAMX damage score, application pre-emergence (Zea mays [7]) | ALOMY damage score, application pre-emergence (Alopecurus myosuroides [8])
5: ABUTH damage score, application pre-emergence (Abutilon theophrasti [1]) | ECHCG damage score, application pre-emergence (Echinochloa crus-galli [2]) | ALOMY damage score, application post-emergence (Alopecurus myosuroides [3]) | AMARE damage score, application post-emergence (Amaranthus retroflexus [4]) | AMARE damage score, application pre-emergence (Amaranthus retroflexus [5]) | ECHCG damage score, application post-emergence (Echinochloa crus-galli [6]) | SETFA damage score, application post-emergence (Setaria faberi [9]) | SETFA damage score, application pre-emergence (Setaria faberi [10]) | ZEAMX damage score, application post-emergence (Zea mays [11]) | ABUTH damage score, application post-emergence (Abutilon theophrasti [12])

CCN1C(=O)N(c2cc(C(C)(C)C)ncn2)C(O)C1OC (stereo not drawn) [Example A26]
1: ALOMY damage score, application post-emergence (Alopecurus myosuroides [3]) | AMARE damage score, application pre-emergence (Amaranthus retroflexus [5]) | ZEAMX damage score, application pre-emergence (Zea mays [7]) | ZEAMX damage score, application post-emergence (Zea mays [11]) | ABUTH damage score, application post-emergence (Abutilon theophrasti [12])
2: ABUTH damage score, application pre-emergence (Abutilon theophrasti [1]) | SETFA damage score, application post-emergence (Setaria faberi [9])
0: ECHCG damage score, application pre-emergence (Echinochloa crus-galli [2]) | AMARE damage score, application post-emergence (Amaranthus retroflexus [4]) | ECHCG damage score, application post-emergence (Echinochloa crus-galli [6]) | ALOMY damage score, application pre-emergence (Alopecurus myosuroides [8]) | SETFA damage score, application pre-emergence (Setaria faberi [10])
